Measured values reported in the CheMixHub viscosity set.

Assay: xn = mol fraction of the nth substance listed

OCCc1ccccc1 + Cc1ccccc1N
viscosity [mPa·s], 100 kPa
Conditions | x2 = 0.0857 | x2 = 0.1652 | x2 = 0.2724 | x2 = 0.3731 | x2 = 0.4711 | x2 = 0.6147 | x2 = 0.7123 | x2 = 0.8105 | x2 = 0.8904
303.15 K | 8.539 | 8.086 | 7.473 | 6.895 | 6.332 | 5.503 | 4.937 | 4.366 | 3.9
308.15 K | 7.247 | 6.868 | 6.356 | 5.874 | 5.402 | 4.708 | 4.234 | 3.755 | 3.364
313.15 K | 6.014 | 5.714 | 5.307 | 4.923 | 4.548 | 3.994 | 3.616 | 3.234 | 2.921
318.15 K | 4.751 | 4.532 | 4.234 | 3.952 | 3.676 | 3.269 | 2.991 | 2.708 | 2.476

CCCCCCCC(=O)O + ClC(Cl)(Cl)Cl
298.15 K, 101 kPa
Conditions | viscosity [mPa·s]
x1 = 0.05 | 1.011
x1 = 0.11 | 1.124
x1 = 0.16 | 1.248
x1 = 0.21 | 1.38
x1 = 0.42 | 2.021
x1 = 0.52 | 2.406
x1 = 0.62 | 2.867
x1 = 0.81 | 3.905

N#CCCl + ClC(Cl)(Cl)Cl
viscosity [mPa·s], 101 kPa
Conditions | 293.15 K | 298.15 K | 303.15 K | 313.15 K | 323.15 K
x1 = 0.014 | 0.983 | 0.907 | 0.844 | 0.749 | 0.672
x1 = 0.087 | 0.939 | 0.867 | 0.803 | 0.71 | 0.633
x1 = 0.222 | 0.914 | 0.841 | 0.78 | 0.688 | 0.615

ClCCOCCCl + FB(F)F
101 kPa, x2 = 0.0939
Conditions | viscosity [mPa·s]
293.15 K | 23.94
303.15 K | 14.59
313.15 K | 9.569
323.15 K | 6.506

C1COCOC1 + NC=O
viscosity [mPa·s], 101 kPa
Conditions | x2 = 0.6012 | x2 = 0.6156 | x2 = 0.8658 | x2 = 0.8689 | x2 = 0.9552 | x2 = 0.9555
298.15 K | 2.039 | – | 3.119 | – | – | 3.328
313.15 K | – | 1.581 | – | 2.196 | 2.366 | –

CC(C)C(C)O (centres undefined) + NCc1ccccc1
viscosity [mPa·s], 101.33 kPa
Conditions | x2 = 0.0999 | x2 = 0.2 | x2 = 0.3002 | x2 = 0.4001 | x2 = 0.4997 | x2 = 0.5998 | x2 = 0.6999 | x2 = 0.7997 | x2 = 0.9
298.15 K | 3.336 | 3.109 | 2.89 | 2.683 | 2.49 | 2.315 | 2.131 | 1.96 | 1.81
303.15 K | 2.903 | 2.663 | 2.443 | 2.249 | 2.084 | 1.927 | 1.792 | 1.673 | 1.571
308.15 K | 2.388 | 2.184 | 2.009 | 1.853 | 1.724 | 1.614 | 1.521 | 1.449 | 1.404

Clc1ccccc1Cl + Nc1cccc(Cl)c1
viscosity [mPa·s], 100 kPa
Conditions | x2 = 0.1053 | x2 = 0.2011 | x2 = 0.3045 | x2 = 0.4064 | x2 = 0.507 | x2 = 0.6062 | x2 = 0.7041 | x2 = 0.8007 | x2 = 0.906
303.15 K | 1.568 | 1.866 | 2.184 | 2.495 | 2.799 | 3.097 | 3.389 | 3.674 | 3.983
308.15 K | 1.444 | 1.71 | 1.995 | 2.274 | 2.546 | 2.812 | 3.072 | 3.326 | 3.6
313.15 K | 1.319 | 1.555 | 1.807 | 2.053 | 2.293 | 2.527 | 2.756 | 2.979 | 3.22
318.15 K | 1.206 | 1.412 | 1.629 | 1.842 | 2.048 | 2.25 | 2.447 | 2.639 | 2.845

Oc1ccccc1Cl + Nc1ccccc1
101 kPa
Conditions | viscosity [mPa·s]
293.15 K, x1 = 0.1176 | 5.78
293.15 K, x1 = 0.2278 | 7.74
293.15 K, x1 = 0.3271 | 9.6
293.15 K, x1 = 0.3874 | 10.56
293.15 K, x1 = 0.4366 | 11.24
293.15 K, x1 = 0.4885 | 11.66
293.15 K, x1 = 0.5271 | 11.76
293.15 K, x1 = 0.5756 | 11.48
293.15 K, x1 = 0.6117 | 10.96
293.15 K, x1 = 0.7174 | 9.04
293.15 K, x1 = 0.8625 | 6.3
298 K, x1 = 0.1032 | 4.945
298 K, x1 = 0.2004 | 6.157
298 K, x1 = 0.3011 | 7.228
298 K, x1 = 0.4069 | 8.07
298 K, x1 = 0.5008 | 8.81
298 K, x1 = 0.6002 | 8
298 K, x1 = 0.7016 | 6.99
298 K, x1 = 0.7852 | 5.942
298 K, x1 = 0.9025 | 4.443
303 K, x1 = 0.1032 | 4.142
303 K, x1 = 0.2004 | 5.008
303 K, x1 = 0.3011 | 5.792
303 K, x1 = 0.4069 | 6.329
303 K, x1 = 0.5008 | 6.859
303 K, x1 = 0.6002 | 6.232
303 K, x1 = 0.7016 | 5.602
303 K, x1 = 0.7852 | 4.74
303 K, x1 = 0.9025 | 3.702
303.15 K, x1 = 0.1176 | 4.05
303.15 K, x1 = 0.2278 | 5.06
303.15 K, x1 = 0.3271 | 5.93
303.15 K, x1 = 0.3874 | 6.39
303.15 K, x1 = 0.4366 | 6.72
303.15 K, x1 = 0.4885 | 6.93
303.15 K, x1 = 0.5271 | 6.95
303.15 K, x1 = 0.5756 | 6.86
303.15 K, x1 = 0.6117 | 6.7
303.15 K, x1 = 0.7174 | 5.8
303.15 K, x1 = 0.8625 | 4.31
308 K, x1 = 0.1032 | 3.556
308 K, x1 = 0.2004 | 4.265
308 K, x1 = 0.3011 | 4.728
308 K, x1 = 0.4069 | 4.979
308 K, x1 = 0.5008 | 5.417
308 K, x1 = 0.6002 | 4.922
308 K, x1 = 0.7016 | 4.511
308 K, x1 = 0.7852 | 3.826
308 K, x1 = 0.9025 | 3.108
313 K, x1 = 0.1032 | 3.11
313 K, x1 = 0.2004 | 3.638
313 K, x1 = 0.3011 | 3.9
313 K, x1 = 0.4069 | 4.024
313 K, x1 = 0.5008 | 4.382
313 K, x1 = 0.6002 | 3.966
313 K, x1 = 0.7016 | 3.75
313 K, x1 = 0.7852 | 3.283
313 K, x1 = 0.9025 | 2.744
313.15 K, x1 = 0.1176 | 2.945
313.15 K, x1 = 0.2278 | 3.54
313.15 K, x1 = 0.3271 | 3.99
313.15 K, x1 = 0.3874 | 4.2
313.15 K, x1 = 0.4366 | 4.33
313.15 K, x1 = 0.4885 | 4.39
313.15 K, x1 = 0.5271 | 4.4
313.15 K, x1 = 0.5756 | 4.34
313.15 K, x1 = 0.6117 | 4.24
313.15 K, x1 = 0.7174 | 3.79
313.15 K, x1 = 0.8625 | 3.01
318 K, x1 = 0.1032 | 2.671
318 K, x1 = 0.2004 | 3.036
318 K, x1 = 0.3011 | 3.241
318 K, x1 = 0.4069 | 3.322
318 K, x1 = 0.5008 | 3.611
318 K, x1 = 0.6002 | 3.27
318 K, x1 = 0.7016 | 3.137
318 K, x1 = 0.7852 | 2.853
318 K, x1 = 0.9025 | 2.446

CCCCC[NH3+].O=[N+]([O-])[O-] + O
298 K, 101 kPa
Conditions | viscosity [mPa·s]
x2 = 0.2 | 69.13
x2 = 0.299 | 47.41
x2 = 0.399 | 30.46
x2 = 0.499 | 20.51
x2 = 0.6 | 14.23
x2 = 0.702 | 9.1
x2 = 0.799 | 5.47
x2 = 0.9 | 2.71
x2 = 0.95 | 1.67
